# Reference: patent publication US20100062131A1, “FLAVAN-3-OL CONTAINING FOODSTUFFS” (CONOPCO, INC., D/B/A UNILEVER, priority 2008, published 2010)
# Biological target: T1, human bitter receptor TAS2R39 (Homo sapiens, UniProt P59534)
# T1 construct: expressed in transfected cells; host or cells: HEK293 (tetracycline/doxycycline-inducible expression; blasticidin, geneticin and hygromycin selection)
# T1 sequence (P59534 1-338): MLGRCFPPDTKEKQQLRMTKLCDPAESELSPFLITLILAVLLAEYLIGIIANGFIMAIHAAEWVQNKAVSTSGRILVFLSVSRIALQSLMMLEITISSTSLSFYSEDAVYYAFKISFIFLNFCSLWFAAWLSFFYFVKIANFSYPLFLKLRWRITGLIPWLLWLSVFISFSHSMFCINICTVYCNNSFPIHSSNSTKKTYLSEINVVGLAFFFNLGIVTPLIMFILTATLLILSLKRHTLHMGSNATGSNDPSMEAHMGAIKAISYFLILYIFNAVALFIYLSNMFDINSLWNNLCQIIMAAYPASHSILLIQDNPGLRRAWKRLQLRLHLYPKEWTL
# Experiment: Inhibition of ECG stimulation of TAS2R39, intracellular calcium (Fluo4-AM fluorescence) assay
# Assay type: cell-based
# Conditions: for % inhibition of TAS2R39: HEK293 cells expressing TAS2R39, test solution 0.5 mM ECG and 10 mM test compound in Tyrodes buffer, percentage reduction of ΔF vs ECG alone; for effectiveness as inhibitor of TAS2R39 compared with gallic acid: comparison of % inhibition in Table 1 with gallic acid
# From the text: Activation of the bitter receptor TAS2R39 causes the release of calcium from the endoplasmic reticulum of those cells containing the receptor. Therefore, changes in calcium levels within cells expressing TAS2R39 serves as a proxy marker for the activity of the receptor. An assay was used to assess the stimulation of TAS2R39 by the flavan-3-ol epicatechin gallate (ECG) and to assess the inhibition of this stimulation of TAS2R39 through the use of various compounds as follows:
# HEK293 cells expressing the human bitter receptor TAS2R39 and a G-protein that allows coupling to a calcium readout system were maintained in Dulbecco's Modified Eagle's Medium (DMEM) containing DMEM and 10% tetracycline-free fetal bovine serum (Cambrex) supplemented with blasticidin (5 μg/ml) geneticin (400 μg/ml) and hygromycin (100 μg/ml). Cells were grown and maintained at 37° C./5% CO2.
# Cells were cultured in a 75 cm^2 flask, harvested by trypsinisation and resuspended in DMEM medium. 100 μl of cells per well were added to a poly-L-lysine coated μClear 96-well plate, and incubated overnight. Expression of the TAS2R39 gene was then induced by the addition of 100 μl DMEM medium containing 0.5 μg/ml doxycyclin. After another 24-30 hrs the medium was removed and the cells were loaded for 1 hour with 50 μl Tyrodes buffer (140 mM NaCl, 5 mM KCl, 10 mM glucose, 1 mM CaCl2.2H2O, 1 mM MgCl2.6H2O, 20 mM HEPES pH 7.4 (Sigma P8761)) containing 2.5 μM of the fluorescent marker of calcium, Fluo4-AM, followed by a 1-hr incubation at 37° C. The cells were then washed with Tyrodes buffer and finally taken up in 100 μl, Tyrodes buffer.
# Test solutions containing 0.5 mM ECG and 10 mM of the test compounds, dissolved in Tyrodes buffer, were prepared and 100 μl of each test solution was added to the wells of the 96-well plate containing the cells. A comparative solution containing only 0.5 mM ECG dissolved in Tyrodes buffer was also prepared and 100 μl was added to a well of the 96-well plate containing the cells.
# Intracellular calcium levels were monitored using a Flexstation II 384. The 96-well plate was loaded onto the Flexstation II 384 and fluorescence measurements were carried out at 37° C. at an excitation wavelength of 485 nm and an emission wavelength of 520 nm. Activity of TA52R39 was measured as the change in fluorescence (ΔF) which was calculated by subtracting the […] measured before addition of the test or comparative solution.
# Inhibition of TAS2R39 activity was measured as the percentage reduction of ΔF in the presence of ECG alone, compared to ΔF in the presence of ECG plus a test compound. 3,4,5-trihydroxybenzoic acid (gallic acid) was included in the selection of the test compounds.
Compound,% inhibition of TAS2R39 [%],effectiveness as inhibitor of TAS2R39 compared with gallic acid
"COc1ccc(/C=C/C(=O)O)c(OC)c1 [2,4-dimethoxycinnamic acid]",40,more effective inhibitors of TAS2R39 than gallic acid
"COc1cccc(C(=O)O)c1O [2-hydroxy-3-methoxybenzoic acid, reference compound]",25,–
"COc1ccccc1C(=O)O [2-methoxybenzoic acid, reference compound]",10,–
"COc1ccccc1/C=C/C(=O)O [2-methoxycinnamic acid, reference compound]",0,–
"O=C(O)c1cc(O)c(O)c(O)c1 [3,4,5-trihydroxybenzoic acid, reference compound]",25,–
"COc1cc(C(=O)O)cc(OC)c1OC [3,4,5-trimethoxybenzoic acid, reference compound]",20,–
"COc1cc(/C=C/C(=O)O)cc(OC)c1OC [3,4,5-trimethoxycinnamic acid, 3,4,5-trimethoxycinnamic acid]",70,more effective inhibitors of TAS2R39 than gallic acid
"COc1cc(CC(=O)O)cc(OC)c1OC [3,4,5-trimethoxyphenylacetic acid, reference compound]",25,–
"O=C(O)c1ccc(O)c(O)c1 [3,4-dihydroxybenzoic acid, reference compound]",15,–
"O=C(O)/C=C/c1ccc(O)c(O)c1 [3,4-dihydroxycinnamic acid]",30,more effective inhibitors of TAS2R39 than gallic acid
"O=C(O)Cc1ccc(O)c(O)c1 [3,4-dihydroxyphenylacetic acid, reference compound]",15,–
"COc1ccc(C(=O)O)cc1OC [3,4-dimethoxybenzoic acid, reference compound]",10,–
"COc1ccc(/C=C/C(=O)O)cc1OC [3,4-dimethoxycinnamic acid]",–,more effective inhibitors of TAS2R39 than gallic acid
"COc1cc(/C=C/C(=O)O)cc(OC)c1 [3,5-dimethoxycinnamic acid, reference compound]",20,–
"COc1cc(CCC(=O)O)cc(OC)c1OC [3-(3,4,5-trimethoxyphenyl)propanoic acid]",35,more effective inhibitors of TAS2R39 than gallic acid
"O=C(O)CCc1ccc(O)c(O)c1 [3-(3,4-dihydroxyphenyl) propanoic acid, 3-(3,4-dihydroxyphenyl)propanoic acid]",30,more effective inhibitors of TAS2R39 than gallic acid
"COc1ccc(CCC(=O)O)cc1OC [3-(3,4-dimethoxyphenyl) propanoic acid, 3-(3,4-dimethoxyphenyl)propanoic acid]",35,more effective inhibitors of TAS2R39 than gallic acid
COc1cc(CCC(=O)O)ccc1O [3-(3-methoxy-4-hydroxyphenyl)propanoic acid],35,more effective inhibitors of TAS2R39 than gallic acid

Compound,% inhibition of TAS2R39 [%],effectiveness as inhibitor of TAS2R39 compared with gallic acid
"O=C(O)CCc1ccc(O)cc1 [3-(4-hydroxyphenyl) propanoic acid, reference compound]",25,–
"COc1ccc(CCC(=O)O)cc1 [3-(4-methoxyphenyl) propanoic acid, 3-(4-methoxyphenyl)propanoic acid]",40,more effective inhibitors of TAS2R39 than gallic acid
"COc1cc(/C=C/C(=O)O)ccc1O [3-methoxy-4-hydroxycinnamic acid, 3-methoxy-4-hydroxycinnamic acid]",65,more effective inhibitors of TAS2R39 than gallic acid
"COc1cccc(C(=O)O)c1 [3-methoxybenzoic add, reference compound]",5,–
"COc1cccc(/C=C/C(=O)O)c1 [3-methoxycinnamic acid, reference compound]",0,–
"O=C(O)/C=C/c1ccccc1 [3-phenyl propenoic acid (Cinnamic acid), 3-phenyl propenoic acid]",40,more effective inhibitors of TAS2R39 than gallic acid
"O=C(O)CCc1ccccc1 [3-phenylpropanoic acid, reference compound]",15,–
"COc1cc(/C=C/C(=O)O)cc(OC)c1O [4-hydroxy-3,5-dimethoxycinnamic acid, 4-hydroxy-3,5-dimethoxycinnamic acid]",65,more effective inhibitors of TAS2R39 than gallic acid
"O=C(O)c1ccc(O)cc1 [4-hydroxybenzoic acid, reference compound]",25,–
O=C(O)/C=C/c1ccc(O)cc1 [4-hydroxycinnamic acid],40,more effective inhibitors of TAS2R39 than gallic acid
"O=C(O)Cc1ccc(O)cc1 [4-hydroxyphenylacetic acid, reference compound]",20,–
"COc1ccc(C(=O)O)cc1 [4-methoxybenzoic acid, reference compound]",15,–
COc1ccc(/C=C/C(=O)O)cc1 [4-methoxycinnamic acid],30,more effective inhibitors of TAS2R39 than gallic acid
"COc1ccc(CC(=O)O)cc1 [4-methoxyphenylacetic acid, reference compound]",15,–
O=C(O)CCCc1ccccc1 [4-phenylbutanoic acid],40,more effective inhibitors of TAS2R39 than gallic acid
"O=C(O)Cc1ccccc1 [Phenylacetic acid, reference compound]",5,–
"N[C@@H](Cc1ccccc1)C(=O)O [Phenylalamine, reference compound]",0,–
Benzoic acid [reference compound],20,–
